Results reported in US4902799A, “Bicyclic alkoxy- and alkylthio-substituted aminoalcohols” (Maggioni-Winthrop S.p.A., priority 1985, dated 1990).
Where two headings read alike, the source gives them in different places.

Columns and labels:
Normolipemic rats [1] = assay: Hypolipemic activity in normolipemic rats; type: in vivo, rat (Sprague Dawley Nos male rats); conditions: for CHOL-HDL (in words) / serum TG (in words): oral
Normolipemic rats [2] = conditions: "as known"; cited from earlier work
male mice [3] = assay: Anti-hypoxic activity (gasping time after decapitation); type: in vivo; conditions: Mus musculus, po, read-out: Gasping time, % diff. from control
in vivo = conditions: mouse, po
platelet aggregation = assay: Collagen-induced platelet aggregation ex vivo; type: in vivo, rat; conditions: 0.15 mM/kg oral, blood 1 hr after treatment, collagen 2-4 mcg/ml
male mice [4] = conditions: mouse, in vivo, po
toxic adrenaline doses = assay: animal or person; type: in vivo, mouse (male mice CrI:CD 1(CR) BR); conditions: Mus musculus, po, 24 h, read-out: PD50 (50% protective dose)
[5] = 100 mg/kg/p.o., pretreatment 90 min

SMILES	LD50 (in vivo)	CHOL, % different from control (Normolipemic rats [1]; 0.37 mM/kg/p.o. × 4 days)	CHOL-HDL, % different from control (Normolipemic rats [1]; 0.37 mM/kg/p.o. × 4 days)	Liver Weight, % different from control (Normolipemic rats [1]; 0.37 mM/kg/p.o. × 4 days)	TG, % different from control (Normolipemic rats [1]; 0.37 mM/kg/p.o. × 4 days)	CHOL-HDL (in words) (Normolipemic rats [1])	serum TG (in words) (Normolipemic rats [1])	CHOL, % different from control (Normolipemic rats [1]; 0.185 mM/kg/p.o. × 4 days)	CHOL-HDL, % different from control (Normolipemic rats [1]; 0.185 mM/kg/p.o. × 4 days)	Liver Weight, % different from control (Normolipemic rats [1]; 0.185 mM/kg/p.o. × 4 days)	TG, % different from control (Normolipemic rats [1]; 0.185 mM/kg/p.o. × 4 days)	% Inhibition, Aggregation rate (platelet aggregation)	% Inhibition, Maximum aggregation (platelet aggregation)	further results
CCOC(=O)C(C)(C)Oc1ccc(Cl)cc1 [Clofibrate, reference compound]	–	–	–	–	–	–	–	–	–	–	–	–	–	CHOL, % different from control (Normolipemic rats [1]; 0.82 mM/kg/p.o. × 4 days): -15.0%; CHOL-HDL, % different from control (Normolipemic rats [1]; 0.82 mM/kg/p.o. × 4 days): 0%; Liver Weight, % different from control (Normolipemic rats [1]; 0.82 mM/kg/p.o. × 4 days): +19.5%; TG, % different from control (Normolipemic rats [1]; 0.82 mM/kg/p.o. × 4 days): -40.0%; liver increase (in words) (Normolipemic rats [2]): significative liver increase
Fc1ccc(C(c2ccc(F)cc2)N2CCN(C/C=C/c3ccccc3)CC2)cc1 [Flunarizine, reference compound]	–	–	–	–	–	–	–	–	–	–	–	–	–	change in vivo at 50 mg/kg (male mice [3]; 50 mg/kg/p.o., pretreatment 90 min): 68.7%
CSc1ccc2cc(C(O)C(C)N3CCN(C(=O)c4ccco4)CC3)ccc2c1 (centres unmarked) [MG 28451, 2-[4-(2-Furoyl)-1-piperazinyl]-1-(6-methylthio-2-naphthyl)-propanol]	> 1000 mg/kg	-13.5%	+46.5%	+9.2%	-48.2%	increase of CHOL-HDL	significative decrease of serum TG	–	–	–	–	–	–	–
CSc1ccc2cc(C(O)C(C)N3CCN(C(=O)c4cccnc4)CC3)ccc2c1 (centres unmarked) [MG 28453, 2-[4-(3-Pyridinylcarbonyl)-1-piperazinyl]-1-(6-methylthio-2-naphthyl)-propanol]	–	-26.9%	+31.7%	+21.6%	-75.4%	increase of CHOL-HDL	significative decrease of serum TG	+8.5%	+45.2%	+2.8%	-36.4%	–	–	–
COc1ccc2cc(C(O)C(C)N3CCN(C(=O)C=Cc4cc(OC)c(OC)c(OC)c4)CC3)ccc2c1 (centres unmarked) [MG 28472, 2-[4-(1-Oxo-3-(3,4,5-trimethoxyphenyl)-2-propenyl)-1-piperazinyl]-1-(6-methoxy-2-naphthyl)-propanol]	–	–	–	–	–	–	–	–	–	–	–	65.3%	75.7%	–
COc1ccc2cc(C(O)C(C)N3CCN(c4ccccc4)CC3)ccc2c1 (centres unmarked) [MG 38068, 2-(4-Phenyl-1-piperazinyl)-1-(6-methoxy-2-naphthyl)-propanol]	> 1000 mg/kg	-21.8%	+32.9%	+0.3%	-56.9%	increase of CHOL-HDL	significative decrease of serum TG	-3.7%	+5.0%	+2.6%	-45.0%	54.4%	58.8%	–
COc1ccc2cc(C(O)C(C)N3CCN(C(=O)C=Cc4ccccc4)CC3)ccc2c1 (centres unmarked) [MG 38071, 2-[4-(1-Oxo-3-phenyl-2-propenyl)-1-piperazinyl]-1-(6-methoxy-2-naphthyl)-propanol]	–	–	–	–	–	–	–	–	–	–	–	–	–	change in vivo at 100 mg/kg (male mice [3]; [5]): 32.7%
CCCCCCCCNC(C)C(O)c1ccc2cc(OC)ccc2c1 (centres unmarked) [MG 38077]	–	–	–	–	–	–	–	–	–	–	–	–	–	change in vivo at 100 mg/kg (male mice [3]; [5]): 71%
COc1ccc2cc(C(O)C(C)N3CCN(C(=O)c4ccco4)CC3)ccc2c1 (centres unmarked) [MG 38078, 2-[4-(2-Furoyl)-1-piperazinyl]-1-(6-methoxy-2-naphthyl)-propanol]	> 2000 mg/kg	–	–	–	–	–	–	–	–	–	–	64.0%	70.4%	–
COc1ccc2cc(C(O)C(C)N3CCN(c4ccccc4)CC3)ccc2c1 (centres unmarked) [MG 38088, 2-(4-Phenyl-1-piperazinyl)-1-(6-methoxy-2-naphthyl)-propanol]	–	-41.3%	+5.4%	+3.4%	-68.5%	–	–	-35.1%	-9.1%	0%	-70.5%	75.1%	68.6%	change in vivo at 100 mg/kg (male mice [3]): 46.8%; LD50 (male mice [4]): higher than 1000 mg/kg; ED50 (toxic adrenaline doses): 13.5 mg/kg
